Patent publication US11505580B2, “Leech polypeptide and use thereof” (priority 2019, dated 2022)
Where no end group is shown, it is not given here.

What was measured:
Format in all cases: cell-based
macrophages RAW264.7 = experiment: Transwell migration assay, LPS-induced macrophage RAW264.7 migration; conditions: 800 μg/mL, 1 μg/mL LPS
From the text: In this example, a leech zymolyte HE was firstly prepared from […] by enzymolysis. […] Then, HE was separated and purified by chromatography on QSepharose FF strong basic anion exchange column, and chromatography on Superdex30, Superdexpeptide and G10 gel column, and Transwell assay was done to track the activity. Finally leech polypeptide HE4-1 having activity to inhibit the migration of macrophages RAW264.7 was obtained. Transwell migration assay was used to detect the activity of HE1-HE6 in inhibiting the macrophage migration. […] Transwell assay was used to detect the inhibition of HE-D on the migration activity of macrophages RAW264.7. The experiments were divided into five groups, including a blank control group, an LPS model group and 200, 400, 800 μg/mL HE-D groups.

JNK = experiment: Western-blot of JNK signaling pathway in LPS-induced RAW264.7 cells; conditions: RAW264.7 induced with LPS
Procedure: (§1) The mechanism of HE-D inhibiting macrophages RAW264.7 was tested by Western-blot.

IL-1 = experiment: ELISA of IL-1 secretion by macrophages RAW264.7; conditions: 0-800 μg/mL
From the text: (§2) The effect of HE-D on the secretion of IL-1, IL-6, IL-12, and TNF-α by macrophages RAW264.7 was detected by ELISA.

TNF-α = experiment: ELISA of TNF-α secretion by macrophages RAW264.7; conditions: 400 and 800 μg/mL
From the text: as §2

macrophage RAW264.7 [1] = experiment: Neutral red phagocytosis test; conditions: 0-800 μg/mL
Procedure: (§3) The effects of HE-D on the phagocytosis ability and lysozyme activity of macrophage RAW264.7 were measured by neutral red phagocytosis test and lysozyme activity assay.

p38 = experiment: Western-blot of p38 signaling pathway in LPS-induced RAW264.7 cells; conditions: RAW264.7 induced with LPS
Procedure: as §1

IL-6 = experiment: ELISA of IL-6 secretion by macrophages RAW264.7; conditions: 0-800 μg/mL
From the text: as §2

IL-12 = experiment: ELISA of IL-12 secretion by macrophages RAW264.7; conditions: 0-800 μg/mL
From the text: as §2

macrophage RAW264.7 [2] = experiment: Lysozyme activity assay; conditions: 0-800 μg/mL
Procedure: as §3

Sequence: EAGSAKELEGDPVAG [HE4-1, leech polypeptide isolated and purified from HE4 by Superdex30, Superdexpeptide and G10 gel chromatography]
- inhibition rate of LPS-induced migration of macrophages RAW264.7 (macrophages RAW264.7): 15.2%

Sequence: EAGSAKELEGDPVAG [HE-D]
- LPS-induced increase in expression level of phosphorylated JNK protein (JNK; 800 μg/mL): significantly inhibit the increase
- expression of JNK protein (JNK): no significant effect
- inhibition rate of LPS-induced migration of macrophages RAW264.7 (macrophages RAW264.7): 14.9%
- secretion of IL-1 (IL-1): no significant effect
- promotion effect on secretion of TNF-α (TNF-α): 11.4%
- secretion of TNF-α (TNF-α): promote the secretion
- phagocytosis ability of macrophages RAW264.7 (macrophage RAW264.7 [1]): no obvious effect
- LPS-induced increase in expression level of phosphorylated p38 protein (p38; 800 μg/mL): significantly inhibit the increase
- expression of total p38 protein (p38): no significant effect
- secretion of IL-6 (IL-6): no significant effect
- secretion of IL-12 (IL-12): no significant effect
- lysozyme activity of macrophages RAW264.7 (macrophage RAW264.7 [2]): no obvious effect
